Paper PMC9995496, “A screen for MeCP2-TBL1 interaction inhibitors using a luminescence-based assay” (Scientific Reports, 2023)
Counter-ions that a name gives are not always drawn. Numbered stars: 1 amine (or outer) side, 2 acyl side, 3 side chain; on linkers, the order of the positions; unused ones are H or OH. Bridge positions count the residues as written; N and C are the ends. Square brackets hold non-standard residues; d marks the D form. Peptide text beside a SMILES is read from it. * marks the point of attachment. pTerphenylCO(4''-OnC5H11) = CCCCCOc1ccc(-c2ccc(-c3ccc(C(=O)*)cc3)cc2)cc1; Orn(4R-OH,5R-OH) = O=C([C@H](C[C@@H](O)[C@@H](O)N[*:3])N[*:1])[*:2]; hTyr(3S-OH,4S-OH) = N[C@H](C(=O)O)[C@H](O)[C@@H](O)c1ccc(O)cc1; Pro(3S-OH,4S-Me) = C[C@H]1CN[C@H](C(=O)O)[C@H]1O; Hyp = O=C(O)[C@@H]1C[C@@H](O)CN1

Tested on: PRKACA-PRKAR2A interaction (SmBiT-PRKACA / LgBiT-PRKAR2A), protein kinase A
Set-up: NanoLuc complementation counter-screen in cell extract, PRKACA with PRKAR2A, loss of luminescence, detects NanoLuc interference
Settings: counter-screen for NanoLuc interference, 0.5 h, 20 µM, inhibitor, Inh (PKA)

Row | Inh (PKA) | Compound
1 | 9.484% | CCOC(=O)[C@H](C)C[C@@H](Cc1ccc(-c2ccccc2)cc1)NC(=O)CCC(=O)O [UM0142165:01, AHU-377(Sacubitril)]
2 | 10.44% | CC(=O)Oc1cc2c(s1)CCN(C(C(=O)C1CC1)c1ccccc1F)C2 (stereo not shown) [UM0142193:01, Prasugrel hydrochloride]
3 | 15.97% | C[S+]([O-])c1ccc(-c2nc(-c3ccc(F)cc3)c(-c3ccncc3)[nH]2)cc1 (stereo not shown) [UM0142194:01, SB 203580 hydrochloride]
4 | 38.66% | COc1ccc(S(=O)(=O)N(CCO)c2ccccc2CN(C)C/C=C/c2ccc(Cl)cc2)cc1 [UM0142198:01, KN-93 hydrochloride]
5 | 10.79% | COc1cc2nccc(Oc3ccc(NC(=O)C4(C(=O)Nc5ccc(F)cc5)CC4)cc3)c2cc1OC [UM0142237:01, Cabozantinib malate (XL184)]
6 | 30.14% | CC(C)(C)c1nc(-c2cccc(NS(=O)(=O)c3c(F)cccc3F)c2F)c(-c2ccnc(N)n2)s1 [UM0142241:01, Dabrafenib (GSK2118436)]
7 | -1.185% | O=C(c1ccccc1)c1ccc2n1CCC2C(=O)O (stereo not shown) [UM0142262:01, Ketorolac tromethamine salt]

The remaining lines, values behind:

Row | Compound | Inh (PKA)
8 | CCOC(=O)[C@@H](N)CCC(=O)N[C@@H](CSCc1ccccc1)C(=O)N[C@@H](C(=O)OCC)c1ccccc1 [UM0142188:01, Ezatiostat hydrochloride] | 1.044%
9 | COc1ccc2[nH]c([S@@+]([O-])Cc3ncc(C)c(OC)c3C)nc2c1 [UM0142233:01, Esomeprazole Sodium] | 0.8501%
10 | CCCC(CCC)C(=O)O [UM0142234:01, Divalproex Sodium] | 2.043%

Same assay, conditions: counter-screen for NanoLuc interference; 0.5 h, 20 µM; inhibitor

Row | Inh (PKA) | Compound
11 | 65.56% | COc1ccc(-c2ccccc2)cc1NS(=O)(=O)c1cc(Cl)cc(Cl)c1O [UM0142166:01, BMS-303141]
12 | 6.598% | C=CC(=O)Nc1cc(Nc2nccc(-c3cn(C)c4ccccc34)n2)c(OC)cc1N(C)CCN(C)C [UM0142170:01, AZD-9291]
13 | 17.24% | CC(C)Nc1cc(-c2c[nH]c(C(=O)N[C@H](CO)c3cccc(Cl)c3)c2)c(Cl)cn1 [UM0142171:01, VRT752271]
14 | 4.784% | Cc1cc(C(N)=O)ccc1-n1c(CCC(=O)O)ccc1-c1ccc(-n2ccnc2)cc1 [UM0142172:01, N6022]
15 | 28.05% | COc1cc(NC(=O)Nc2cccc(CNC(=O)O[C@H]3CCOC3)c2)ccc1-c1cnco1 [UM0142173:01, Merimepodib]
16 | 5.354% | Cc1cc(-c2nc(-c3ccc(OC(F)(F)F)cc3)no2)nn1Cc1ccnc(N2CCN(C3CC3)CC2)c1 [UM0142175:01, BAY 87-2243]
17 | 16.18% | CCn1c(=O)c(-c2ccc(-c3cncs3)cc2Cl)cc2cnc(Nc3ccc(N4CCN(C)CC4)cc3)nc21 [UM0142182:01, FRAX597]
18 | 8.98% | O=C(NCc1ccncc1)C12CC3CC(C1)CC(c1ccc(Cl)cc1)(C3)C2 [UM0142183:01, ABC294640]
19 | 3.047% | N#Cc1cc(-c2n[nH]c(-c3ccncc3)n2)ccn1 [UM0142184:01, Topiroxostat]
20 | 1.846% | c1cc(OCCN2CCCCC2)cc(-c2n[nH]c3ccc(-c4nnc[nH]4)cc23)c1 [UM0142189:01, CC-401]
21 | 0.1491% | CN(C)C(=O)c1ccc(S(=O)(=O)c2ccc(NC(=O)[C@@](C)(O)C(F)(F)F)c(Cl)c2)cc1 [UM0142195:01, AZD7545]
22 | 22.65% | C[C@@H]1CCNC(=O)c2cc3ccc(C(=O)Nc4nc5ccccc5n4CCCN(C)C)cc3n21 [UM0142196:01, BIX 02565]
23 | 9.933% | O=C1c2ccccc2C(=O)c2oc(-c3cccnc3)nc21 [UM0142199:01, SJB3-019A]
24 | -0.4463% | c1ccc2c(c1)CCCC2C1=NCCN1 (stereo not shown) [UM0142214:01, Tetrahydrozoline HCl]
25 | 29.29% | CCC(=O)Nc1cccc(Oc2nc(Nc3ccc(N4CCN(C)CC4)cc3OC)ncc2Cl)c1 [UM0142226:01, WZ4003]
26 | 15.4% | Cc1ccc(C(=O)Nc2ccc(CN3CCN(C)CC3)c(C(F)(F)F)c2)cc1C#Cc1cnc2[nH]ncc2c1 [UM0142238:01, GZD824]
27 | 12.64% | CNC(=O)c1cc(Oc2ccc(NC(=O)Nc3cc(C(C)(C)C)nn3-c3ccc4ncccc4c3)c(F)c2)ccn1 [UM0142239:01, DCC-2036 (Rebastinib)]
28 | 35.77% | CC1=C(C(=O)OC(C)C)C(c2cccc([N+](=O)[O-])c2)C(C(=O)OC2CN(C(c3ccccc3)c3ccccc3)C2)=C(N)N1 (stereo not shown) [UM0142244:01, Azelnidipine]
29 | -0.8766% | CCCCN1CCCCC1C(=O)Nc1c(C)cccc1C (stereo not shown) [UM0142248:01, Bupivacaine HCl]
30 | 0.7845% | CCCCN1CCCC[C@H]1C(=O)Nc1c(C)cccc1C [UM0142248:02, Levobupivacaine HCl]
31 | 10.23% | CCc1c(C(=O)NCCc2ccc(N3CCCCC3)cc2)[nH]c2ccc(Cl)cc12 [UM0142252:01, Org 27569]
32 | 54.88% | Nc1nccc(Oc2ccc(NC(=O)c3c[nH]cc(-c4ccc(F)cc4)c3=O)cc2F)c1Cl [UM0142257:01, BMS-794833]
33 | 5.292% | CN1CCN(C2CCN(C(=O)Nc3cc(Oc4ccc(NC(=O)C5(C(=O)Nc6ccc(F)cc6)CC5)c(F)c4)ccn3)CC2)CC1 [UM0142258:01, Golvatinib (E7050)]
34 | 33.4% | CN1C(C(=O)Nc2ccccn2)=C(O)c2sc(Cl)cc2S1(=O)=O [UM0142259:01, Lornoxicam]
35 | -0.4888% | CC(C(=O)O)c1cccc(C(=O)c2ccccc2)c1 (stereo not shown) [UM0142261:01, Ketoprofen]
36 | 28.18% | CC1(C)Cc2c(-c3ccccc3)c(-c3ccc(Cl)cc3)c(CC(=O)O)n2C1 [UM0142263:01, Licofelone]

Further lines, the compound ahead of its results:

Row | Compound | Inh (PKA)
37 | COc1cccc(OCCCN)c1-c1cc(Nc2cnc(C#N)cn2)n[nH]1 [UM0142169:01, LY2606368] | 14.04%
38 | COc1cc2c(NC3CCN(CC4CCCCC4)CC3)nc(N3CCCN(C(C)C)CC3)nc2cc1OCCCN1CCCCC1 [UM0142178:01, UNC 0631] | 0.9058%
39 | CN[C@H](CC(C)C)C(=O)N[C@H]1C(=O)N[C@@H](CC(N)=O)C(=O)N[C@H]2C(=O)N[C@H]3C(=O)N[C@H](C(=O)N[C@H](C(=O)O)c4cc(O)cc(O)c4-c4cc3ccc4O)[C@H](O)c3ccc(c(Cl)c3)Oc3cc2cc(c3O[C@@H]2O[C@H](CO)[C@@H](O)[C@H](O)[C@H]2O[C@H]2C[C@](C)(N)[C@H](O)[C@H](C)O2)Oc2ccc(cc2Cl)[C@H]1O [UM0142186:01, Vancomycin hydrochloride] | -0.993%
40 | CCCCCOc1ccc(-c2ccc(-c3ccc(C(=O)N[C@H]4C[C@@H](O)[C@@H](O)NC(=O)[C@@H]5[C@@H](O)[C@@H](C)CN5C(=O)[C@H]([C@@H](C)O)NC(=O)[C@H]([C@H](O)[C@@H](O)c5ccc(O)cc5)NC(=O)[C@@H]5C[C@@H](O)CN5C(=O)[C@H]([C@@H](C)O)NC4=O)cc3)cc2)cc1 [UM0142187:01, Anidulafungin] ({pTerphenylCO(4''-OnC5H11)}-[Orn(4R-OH,5R-OH)]T[Hyp][hTyr(3S-OH,4S-OH)]T[Pro(3S-OH,4S-Me)]; lactam 1-C) | 1.476%
41 | COc1cc(F)c(F)c(Nc2ccc(I)cc2F)c1NS(=O)(=O)C1(C[C@H](O)CO)CC1 [UM0142191:01, Refametinib] | 65.39%
42 | COc1cc2ncnc(Sc3nnc(C)s3)c2cc1OC [UM0142197:01, SKLB1002] | -0.2342%
43 | CC(C)(C)NCC(O)c1cc(O)cc(O)c1 (stereo not shown) [UM0142204:01, Terbutaline Sulfate] | 1.128%
44 | CNC[C@H](O)c1ccc(O)c(O)c1 [UM0142209:01, L-Adrenaline] | 7.349%
45 | COCCc1ccc(OCC(O)CNC(C)C)cc1 (stereo not shown) [UM0142210:01, Metoprolol Tartrate] | 1.896%
46 | CC(C)(C)NCC(O)c1ccc(O)c(CO)c1 (stereo not shown) [UM0142213:01, Salbutamol Sulfate] | -0.5821%
47 | COc1ccc(C[C@@H]2c3cc(OC)c(OC)cc3CC[N@+]2(C)CCC(=O)OCCCCCOC(=O)CC[N@@+]2(C)CCc3cc(OC)c(OC)cc3[C@H]2Cc2ccc(OC)c(OC)c2)cc1OC [UM0142215:01, Cisatracurium Besylate] | 2.146%
48 | Cc1cccc(Cc2c[nH]cn2)c1C [UM0142216:01, Detomidine HCl] | 4.249%
49 | COc1cc2c(cc1OC)CC(=O)N(CCCN(C)C[C@H]1Cc3cc(OC)c(OC)cc31)CC2 [UM0142218:01, Ivabradine HCl] | -0.5336%
50 | Cc1cccc(C(C)c2c[nH]cn2)c1C (stereo not shown) [UM0142219:01, Medetomidine HCl] | 7.933%
51 | CN1[C@@H]2CC(O)C[C@H]1[C@@H]1O[C@@H]12 (stereo partly shown) [UM0142220:01, Scopine] | 1.123%
52 | N=C(N)NC(=N)NCCc1ccccc1 [UM0142225:01, Phenformin HCl] | 1.045%
53 | CC(C)(C#N)c1cc(Cn2cncn2)cc(C(C)(C)C#N)c1 [UM0142230:01, Anastrozole] | 5.113%
54 | CCOC(=O)C1=C(C)NC(C)=C(C(=O)OC)C1c1cccc([N+](=O)[O-])c1 (stereo not shown) [UM0142235:01, Nitrendipine] | 91.42%
55 | O=C1Nc2ccc(I)cc2/C1=C/c1cc(Br)c(O)c(Br)c1 [UM0142240:01, GW5074] | 70.55%
56 | CCCC(=O)OCOC(=O)C1=C(C)NC(C)=C(C(=O)OC)C1c1cccc(Cl)c1Cl (stereo not shown) [UM0142245:01, Clevidipine Butyrate] | 81.79%
57 | CCOC(=O)C1=C(C)NC(C)=C(C(=O)OC)C1c1cccc(Cl)c1Cl (stereo not shown) [UM0142246:01, Felodipine] | 92.04%
58 | CCOC(=O)C1=C(C)NC(C)=C(C(=O)OCC)C1c1ccccc1/C=C/C(=O)OC(C)(C)C [UM0142247:01, Lacidipine] | 92.96%
59 | CCN1/C(=C/C(C)=O)Sc2ccc(OC)cc21 [UM0142254:01, TG003] | 0.5333%
60 | Cn1cc(-c2[nH]c3cc(NC(=O)[C@H](N)C4CCCCC4)cc4c3c2C=NNC4=O)cn1 [UM0142256:01, PF-477736] | 39.56%
61 | CCc1cccc2c3c([nH]c12)C(CC)(CC(=O)O)OCC3 (stereo not shown) [UM0142260:01, Etodolac] | 0.3149%
